The record followed here is ChEMBL document CHEMBL4411299, “A class of novel tubulin polymerization inhibitors exert effective anti-tumor activity via mitotic catastrophe” (Eur J Med Chem, 2019).

Activity calls are given as the source filed them. The calls are words filed in the database; no cut-off is given here.

Assay [1] concerns HeLa. The experiment in a line: Induction of apoptosis in human HeLa cells assessed as necrotic cells at 0.2 uM after 24 hrs by Annexin V-FITC/propidium iodide staining-based flow cytometric analysis (reference value: 0.05%). It counts as functional. (In general: A flow cytometer gives signals particle by particle.)
The subject of the next assay is HepG2. Put plainly: Antiproliferative activity against human HepG2 cells after 48 hrs by MTT assay. It counts as functional. Particulars: HepG2, 48 h. Background: Tetrazolium dyes change colour on reduction, which living cells bring about.
Assay [2] has as its system HeLa. Put plainly: Cell cycle arrest in human HeLa cells assessed as accumulation of cells at G2/M phase at 0.1 to 2 uM after 6 to 24 hrs by propidium iodide staining-based flow cytometric analysis. Type of assay: functional.
A further assay relates to A2780. Put plainly: Antiproliferative activity against human A2780 cells after 48 hrs by MTT assay. Type of assay: functional. Particulars: A2780, 48 h.
Assay [3] deals with HeLa. Put plainly: Inhibition of colony formation in human HeLa cells after 2 weeks by crystal violet staining-based assay. It counts as functional, cell-based.
In assay [4] the test system is HeLa. The experiment in a line: Induction of apoptosis in human HeLa cells assessed as viable cells at 0.4 uM after 24 hrs by Annexin V-FITC/propidium iodide staining-based flow cytometric analysis (reference value: 92.8%). Particulars: read-out: Activity. Type of assay: functional.
A further assay deals with HT-29. Put plainly: Antiproliferative activity against human HT-29 cells after 48 hrs by MTT assay. It counts as functional. Particulars: HT-29, 48 h.
The subject of assay [5] is HeLa. Put plainly: Induction of apoptosis in human HeLa cells assessed as necrotic cells at 0.4 uM after 24 hrs by Annexin V-FITC/propidium iodide staining-based flow cytometric analysis (reference value: 0.05%). It counts as functional.
For assay [6], the system named is HeLa. Put plainly: Induction of apoptosis in human HeLa cells assessed as early apoptotic cells at 0.2 uM after 24 hrs by Annexin V-FITC/propidium iodide staining-based flow cytometric analysis (reference value: 3.65%). Type of assay: functional.
Another assay relates to A549. Put plainly: Antiproliferative activity against human A549 cells after 48 hrs by MTT assay. Particulars: A549, 48 h. Type of assay: functional.
Assay [7] deals with HeLa. The experiment in a line: Induction of apoptosis in human HeLa cells assessed as early apoptotic cells at 0.4 uM after 24 hrs by Annexin V-FITC/propidium iodide staining-based flow cytometric analysis (reference value: 3.65%). Type of assay: functional.
The test system of assay [8] is HeLa. Put plainly: Induction of apoptosis in human HeLa cells assessed as viable cells at 0.2 uM after 24 hrs by Annexin V-FITC/propidium iodide staining-based flow cytometric analysis (reference value: 92.8%). Type of assay: functional. Particulars: read-out: Activity.
Assay [9] relates to HeLa. The experiment in a line: Antiproliferative activity against human HeLa cells after 48 hrs by MTT assay. It counts as functional.
For another assay, the system named is MDA-MB-231. Put plainly: Antiproliferative activity against human MDA-MB-231 cells after 48 hrs by MTT assay. Type of assay: functional. The settings on record: MDA-MB-231, 48 h.
In assay [10] the test system is HeLa. Put plainly: Induction of apoptosis in human HeLa cells assessed as late apoptotic cells at 0.2 uM after 24 hrs by Annexin V-FITC/propidium iodide staining-based flow cytometric analysis (reference value: 3.51%). It counts as functional.
The subject of assay [11] is HeLa. Put plainly: Induction of apoptosis in human HeLa cells assessed as late apoptotic cells at 0.4 uM after 24 hrs by Annexin V-FITC/propidium iodide staining-based flow cytometric analysis (reference value: 3.51%). It counts as functional.
For assay [12], the system named is HeLa. The experiment in a line: Induction of apoptosis in human HeLa cells assessed as early apoptotic cells at 0.05 uM after 24 hrs by Annexin V-FITC/propidium iodide staining-based flow cytometric analysis (reference value: 3.65%). Type of assay: functional.
For assay [13], the system named is HeLa. The experiment in a line: Antitumor activity against human HeLa cells xenografted in nude mouse assessed as tumor weight at 10 mg/kg, iv administered every other day up to 20 days (reference value: 1.014 +/- 0.116g). It counts as functional.
The subject of assay [14] is HeLa. Put plainly: Induction of apoptosis in human HeLa cells assessed as late apoptotic cells at 0.05 uM after 24 hrs by Annexin V-FITC/propidium iodide staining-based flow cytometric analysis (reference value: 3.51%). It counts as functional.
In assay [15] the test system is HeLa. Put plainly: Antitumor activity against human HeLa cells xenografted in nude mouse assessed as tumor growth inhibition at 10 mg/kg, iv administered every other day up to 20 days relative to control. The settings on record: 480 h, read-out: TGI. It counts as functional. For orientation: A xenograft is tissue or cells of one species grown in another, often human tumour cells in immunodeficient mice.

Assay [16] relates to HeLa. The experiment in a line: Induction of apoptosis in human HeLa cells assessed as necrotic cells at 0.05 uM after 24 hrs by Annexin V-FITC/propidium iodide staining-based flow cytometric analysis (reference value: 0.05%). It counts as functional.
Assay [17] relates to HeLa. The experiment in a line: Induction of apoptosis in human HeLa cells assessed as viable cells at 0.05 uM after 24 hrs by Annexin V-FITC/propidium iodide staining-based flow cytometric analysis (reference value: 92.8%). Type of assay: functional. Particulars: read-out: Activity.
The target of assay [18] is T1, Tubulin (Homo sapiens) (UniProt P68371+Q9H4B7+P0DPH7+P68366+Q13509+Q71U36+P04350+Q3ZCM7+P07437+P68363+Q9BQE3+Q6PEY2+Q13885+Q9BVA1+Q9BUF5). The experiment in a line: Induction of tubulin polymerization in human HeLa cells assessed as increase in density of microtubule polymerization at 0.05 after 12 hrs by DAPI staining-based confocal fluorescence microscopic analysis. Type of assay: cell-based.

Assay [19] deals with T1, Tubulin (Homo sapiens). The experiment in a line: Induction of tubulin polymerization in human HeLa cells assessed as induction of long thick microtubule bundles at 0.05 after 12 hrs by DAPI staining-based confocal fluorescence microscopic analysis. Type of assay: cell-based.

In the case of `COC(=O)N1N=C(c2cccc(Cl)c2)CC1c1cc(OC)c(OC)c(OC)c1` (stereo not drawn), the Activity with HeLa [1] was 0.481%; with HeLa [5] it was 0.511%; with HeLa [6] it was 3.3%; in the assay on HeLa [7], 3.26%; in the assay with HeLa [10], 3.19%; with HeLa [11], 3.13%. Besides, the GI50 (in general, the concentration giving 50% growth inhibition) in the assay on HepG2 was 1.24 µM; in the assay with A2780, 1.54 µM; in the assay with HT-29, 0.14 µM; in the assay with A549, 0.34 µM; with HeLa [9], 0.16 µM; in the assay with MDA-MB-231, 0.11 µM. The result in the assay with HeLa [2] was Active. Moreover, the inhibition entry in the assay with HeLa [3] is “Dose-dependent effect”. Further, in the assay on HeLa [4], the viability at 0.4 µM was determined as 93.1%. Besides, the viability at 0.2 µM in the assay on HeLa [8] was determined as 93%.

In the case of `COc1ccc(/C=C\c2cc(OC)c(OC)c(OC)c2)cc1OP(=O)([O-])[O-].[Na+].[Na+]` [FOSBRETABULIN DISODIUM], the GI50 with HepG2 stood at 0.19 µM; in the assay with A2780, 0.32 µM; in the assay with HT-29 it was 0.062 µM; with A549, 0.16 µM; in the assay on HeLa [9], 0.019 µM; with MDA-MB-231 it was 0.065 µM. Moreover, the Activity came to 18.9% in the assay with HeLa [12], 0.187 g in the assay with HeLa [13], 5.08% in the assay with HeLa [14] and 0.6% in the assay on HeLa [16]. In addition, the inhibition in vivo at 10 mg/kg in the assay with HeLa [15] was determined as 79.4%. Besides, the viability at 0.05 µM in the assay on HeLa [17] was found to be 75.4%.

Turning to `CC(=O)O[C@H]1C(=O)[C@@]2(C)[C@H]([C@H](OC(=O)c3ccccc3)[C@]3(O)C[C@H](OC(=O)[C@H](O)[C@@H](NC(=O)c4ccccc4)c4ccccc4)C(C)=C1C3(C)C)[C@]1(OC(C)=O)CO[C@@H]1C[C@@H]2O`, the outcome on Tubulin (Homo sapiens) [18] and on Tubulin (Homo sapiens) [19] was Active.

As for `COC(=O)N1N=C(c2ccccc2)CC1c1ccc(OC)c(O)c1` (stereo not drawn), the GI50 stood at 9.81 µM in the assay on HepG2; 4.96 µM in the assay with A2780; 3.5 µM with HT-29; 8.93 µM with A549; 7.52 µM in the assay with HeLa [9]; 14.5 µM with MDA-MB-231.

On to `COc1ccc(C2=NN(C(=O)OCc3ccccc3)C(c3cc(OC)c(OC)c(OC)c3)C2)cc1` (stereo not drawn), for which the GI50 in the assay with HepG2, in the assay with A2780, in the assay with HT-29, in the assay with A549, in the assay on HeLa [9] and in the assay on MDA-MB-231 was above 10 µM throughout.

In the case of `COc1cc(C2CC(c3ccccc3)=NN2C(=O)OCc2ccccc2)cc(OC)c1OC` (stereo not drawn), the GI50 in the assay with HepG2, in the assay with A2780, in the assay with HT-29, in the assay on A549, in the assay on HeLa [9] and in the assay on MDA-MB-231 was above 10 µM throughout.

With `COC(=O)N1N=C(c2ccc(O)cc2)CC1c1cc(OC)c(OC)c(OC)c1` (stereo not drawn), the GI50 with HepG2 amounted to 7.82 µM; in the assay on A2780, 2.52 µM; with HT-29, 6.77 µM; in the assay with A549, 8.57 µM; with HeLa [9] it was 1.14 µM; in the assay with MDA-MB-231 it was 7.15 µM.

Consider `COC(=O)N1N=C(c2cccc(O)c2)CC1c1cc(OC)c(OC)c(OC)c1` (stereo not drawn), for which the GI50 in the assay with HepG2 amounted to 0.65 µM; in the assay on A2780 it was 0.81 µM; with HT-29, 1.35 µM; in the assay on A549 it was 3.17 µM; in the assay on HeLa [9], 1.97 µM; in the assay on MDA-MB-231, 0.74 µM.

On to `COC(=O)N1N=C(c2ccc(OC)c(OC)c2)CC1c1cc(OC)c(OC)c(OC)c1` (stereo not drawn), for which the GI50 in the assay with HepG2 was 4.21 µM; with A2780, 11.4 µM; in the assay on HT-29 it was 9.2 µM; in the assay on A549, 3.93 µM; in the assay with HeLa [9] it was 3.39 µM; with MDA-MB-231, 9.9 µM.

For the compound `CCCOC(=O)N1N=C(c2cccc(O)c2)CC1c1cc(OC)c(OC)c(OC)c1` (stereo not drawn), the GI50 in the assay on HepG2 is above 10 µM; with A2780, 11.1 µM; in the assay on HT-29, 15.2 µM; with A549, above 10 µM; with HeLa [9], above 10 µM; with MDA-MB-231 it was 10 µM.

On to `COC(=O)N1N=C(c2ccccc2)CC1c1cc(OC)c(OC)c(OC)c1` (stereo not drawn), for which the GI50 in the assay with HepG2 came to 3.95 µM; in the assay with A2780, 2.77 µM; in the assay on HT-29 it was 6.26 µM; in the assay with A549 it was 2.88 µM; with HeLa [9] it was 2.18 µM; with MDA-MB-231, 1.08 µM.

As to `CCCOC(=O)N1N=C(c2ccc(OC)cc2)CC1c1cc(OC)c(OC)c(OC)c1` (stereo not drawn), the concentration for 50% growth inhibition (GI50) in the assay with HepG2 is above 10 µM; in the assay with A2780, 11.7 µM; in the assay on HT-29 it was 12.7 µM; with A549, above 10 µM; in the assay with HeLa [9], above 10 µM; with MDA-MB-231, 20.4 µM.

`COC(=O)N1N=C(c2ccccc2)CC1c1cc(OC)c(OC)cc1OC` (stereo not drawn): the concentration for 50% growth inhibition (GI50) with HepG2 was 6.53 µM; in the assay on A2780, above 10 µM; in the assay on HT-29 it was 14.9 µM; in the assay on A549, 5.32 µM; with HeLa [9], 2.47 µM; with MDA-MB-231, above 10 µM.

Take `CCOc1cccc(C2=NN(C(=O)OC)C(c3cc(OC)c(OC)c(OC)c3)C2)c1` (stereo not drawn): the GI50 is 8.36 µM in the assay on HepG2; 0.76 µM in the assay with A2780; 4.45 µM with HT-29; 5.29 µM in the assay on A549; 4.97 µM with HeLa [9]; 0.19 µM with MDA-MB-231.

`COc1cc(C2CC(c3cccc(O)c3)=NN2C(=O)OCc2ccccc2)cc(OC)c1OC` (stereo not drawn): the GI50 in the assay with HepG2, in the assay on A2780, with HT-29, with A549, in the assay with HeLa [9] and in the assay with MDA-MB-231 was above 10 µM each time.

Consider `COC(=O)N1N=C(c2cc(OC)c(OC)c(OC)c2)CC1c1cc(OC)c(OC)c(OC)c1` (stereo not drawn), for which the GI50 in the assay on HepG2 was determined as 9.72 µM; with A2780, 14 µM; with HT-29, 7.85 µM; in the assay on A549, 12.6 µM; in the assay on HeLa [9], 5.68 µM; in the assay on MDA-MB-231, 11.1 µM.
